Measured values: ChEMBL document CHEMBL1128924, “Some benzenesulfonamido-substituted valerophenones that are selective antagonists for the 5-HT2C receptor” (Bioorg Med Chem Lett, 1996)

How the values were obtained:
Assay type in all cases: cell-based
[1] = target: 5-hydroxytryptamine receptor 2B (Homo sapiens, UniProt P41595); experiment: Displacement of [3H]-5-5HT from human cloned 5-hydroxytryptamine 2B receptor expressed in CHO-K1 cells
[2] = target: T1, 5-hydroxytryptamine receptor 2A (Homo sapiens, UniProt P28223); experiment: Compound was evaluated for displacement of [3H]ketanserin from human cloned 5-hydroxytryptamine 2A receptor in transfected CHO-K1 cells
T1 sequence (P28223 whole entry): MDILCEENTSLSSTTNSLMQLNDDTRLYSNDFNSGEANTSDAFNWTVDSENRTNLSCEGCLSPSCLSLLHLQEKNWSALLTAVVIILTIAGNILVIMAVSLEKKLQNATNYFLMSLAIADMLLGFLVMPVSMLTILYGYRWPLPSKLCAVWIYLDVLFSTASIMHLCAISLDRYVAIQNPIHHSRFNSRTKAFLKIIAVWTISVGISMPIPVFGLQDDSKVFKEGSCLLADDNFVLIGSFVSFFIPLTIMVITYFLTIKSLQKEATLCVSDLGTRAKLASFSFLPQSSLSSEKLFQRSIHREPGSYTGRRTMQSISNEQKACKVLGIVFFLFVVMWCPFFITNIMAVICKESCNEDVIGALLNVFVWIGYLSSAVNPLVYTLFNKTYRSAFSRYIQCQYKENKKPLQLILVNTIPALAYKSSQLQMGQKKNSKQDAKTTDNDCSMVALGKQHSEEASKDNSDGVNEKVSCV

[3] = target: T2, 5-hydroxytryptamine receptor 2C (Homo sapiens, UniProt P28335); experiment: Displacement of [3H]mesulergine from human cloned 5-hydroxytryptamine 2C receptor expressed in CHO-K1 cells
T2 sequence (P28335 whole entry): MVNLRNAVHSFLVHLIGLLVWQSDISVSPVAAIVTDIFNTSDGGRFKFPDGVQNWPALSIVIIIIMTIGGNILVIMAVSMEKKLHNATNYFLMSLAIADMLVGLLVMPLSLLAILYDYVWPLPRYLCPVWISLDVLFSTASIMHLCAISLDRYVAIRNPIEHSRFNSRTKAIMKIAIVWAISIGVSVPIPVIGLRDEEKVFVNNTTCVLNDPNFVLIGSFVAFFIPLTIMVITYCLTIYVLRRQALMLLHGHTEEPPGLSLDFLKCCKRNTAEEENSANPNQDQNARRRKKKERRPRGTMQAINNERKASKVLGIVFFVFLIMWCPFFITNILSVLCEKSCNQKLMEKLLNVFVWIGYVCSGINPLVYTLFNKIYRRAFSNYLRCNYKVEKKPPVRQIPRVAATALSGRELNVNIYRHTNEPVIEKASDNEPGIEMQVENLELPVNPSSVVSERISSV

[4] = target: T1, 5-hydroxytryptamine receptor 2A; experiment: Displacement of [3H]-ketanserin from human cloned 5-hydroxytryptamine 2A receptor expressed in CHO-K1 cells.
[5] = target: 5-hydroxytryptamine receptor 2A (Rattus norvegicus, UniProt P14842); experiment: Compound was evaluated for displacement of [3H]ketanserin from cloned rat 5-hydroxytryptamine 2A receptor in transfected CHO-K1 cells.
Sequence of 5-hydroxytryptamine receptor 2A (Rattus norvegicus, UniProt P14842) (P14842 whole entry, looked up): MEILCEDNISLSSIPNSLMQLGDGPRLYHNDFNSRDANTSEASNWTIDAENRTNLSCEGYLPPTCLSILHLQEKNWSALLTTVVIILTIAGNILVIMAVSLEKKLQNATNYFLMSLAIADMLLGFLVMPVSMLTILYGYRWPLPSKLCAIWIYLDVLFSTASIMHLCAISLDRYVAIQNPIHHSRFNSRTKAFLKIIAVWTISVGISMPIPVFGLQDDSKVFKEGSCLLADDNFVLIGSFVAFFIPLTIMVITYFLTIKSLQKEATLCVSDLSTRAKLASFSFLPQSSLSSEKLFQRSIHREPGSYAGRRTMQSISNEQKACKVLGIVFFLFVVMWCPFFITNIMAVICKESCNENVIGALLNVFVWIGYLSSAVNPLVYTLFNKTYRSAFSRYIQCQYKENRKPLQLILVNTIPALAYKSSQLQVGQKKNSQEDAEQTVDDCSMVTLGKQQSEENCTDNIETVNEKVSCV

[6] = target: T3, 5-hydroxytryptamine receptor 2C (Rattus norvegicus, UniProt P08909); experiment: Compound was evaluated for displacement of [3H]mesulergine from cloned rat 5-hydroxytryptamine 2C receptor in transfected CHO-K1 cells.
T3 sequence (P08909 whole entry): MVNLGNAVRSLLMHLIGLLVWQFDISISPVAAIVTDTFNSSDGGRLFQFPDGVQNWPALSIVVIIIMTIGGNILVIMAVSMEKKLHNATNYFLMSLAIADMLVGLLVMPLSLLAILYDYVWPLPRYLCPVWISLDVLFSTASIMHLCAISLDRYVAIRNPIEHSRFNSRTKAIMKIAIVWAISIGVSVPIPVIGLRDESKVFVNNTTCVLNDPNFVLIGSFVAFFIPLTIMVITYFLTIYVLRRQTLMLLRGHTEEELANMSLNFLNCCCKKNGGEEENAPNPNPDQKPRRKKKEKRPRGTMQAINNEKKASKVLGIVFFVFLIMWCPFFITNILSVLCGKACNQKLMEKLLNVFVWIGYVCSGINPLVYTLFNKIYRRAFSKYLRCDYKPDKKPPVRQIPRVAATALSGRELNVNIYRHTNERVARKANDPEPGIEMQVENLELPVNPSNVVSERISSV

Sequence of 5-hydroxytryptamine receptor 2B (P41595 whole entry): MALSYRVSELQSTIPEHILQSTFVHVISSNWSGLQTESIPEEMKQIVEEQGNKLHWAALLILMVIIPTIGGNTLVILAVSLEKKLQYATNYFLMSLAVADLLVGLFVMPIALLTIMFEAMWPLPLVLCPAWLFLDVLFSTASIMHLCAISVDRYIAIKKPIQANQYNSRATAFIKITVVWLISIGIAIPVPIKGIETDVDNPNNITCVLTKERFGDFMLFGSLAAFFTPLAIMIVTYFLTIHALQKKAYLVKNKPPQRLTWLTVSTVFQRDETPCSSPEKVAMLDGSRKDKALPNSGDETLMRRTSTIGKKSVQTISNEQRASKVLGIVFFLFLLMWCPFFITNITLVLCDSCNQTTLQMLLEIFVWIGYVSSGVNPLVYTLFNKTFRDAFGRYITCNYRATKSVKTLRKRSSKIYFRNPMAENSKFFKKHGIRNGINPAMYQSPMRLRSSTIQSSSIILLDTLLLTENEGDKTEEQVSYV

Ki [1] [nM]	Ki [2] [nM]	Ki [3] [nM]	Ki [4] [nM]	Ki [5] [nM]	Ki [6] [nM]	Structure (SMILES)
126	20	3.16				COc1ccc(OC)c(C(=O)CCCCN2CCC3(CC2)NC(=O)NC3=O)c1
398		398	> 10000			COc1cc(OC)c(C(=O)CCCCN2CCC3(CC2)NC(=O)NC3=O)cc1NS(=O)(=O)c1ccccc1Cl
				794	100	COc1cc(OC)c(C(=O)CCCCN2CCC3(CC2)NC(=O)NC3=O)cc1NS(=O)(=O)c1cccc(C(F)(F)F)c1
126		10	> 10000			COc1cc(OC)c(C(=O)CCCCN2CCC3(CC2)NC(=O)NC3=O)cc1NS(=O)(=O)c1ccc(F)cc1
100	398	10				COc1cc(OC)c(-c2ccccc2)cc1C(=O)CCCCN1CCC2(CC1)NC(=O)NC2=O
200		50.1	2000			COc1cc(OC)c(C(=O)CCCCN2CCC3(CC2)NC(=O)NC3=O)cc1NS(=O)(=O)c1cccc(Cl)c1
				7.94	2	COc1ccc(NS(=O)(=O)c2ccc(Cl)cc2)cc1C(=O)CCCCN1CCC2(CC1)NC(=O)NC2=O
631		31.6	3160			COc1cc(OC)c(C(=O)CCCCN2CCC3(CC2)NC(=O)NC3=O)cc1NS(=O)(=O)c1ccccc1
251		39.8	> 10000			COc1cc(OC)c(C(=O)CCCCN2CCC3(CC2)NC(=O)NC3=O)cc1NS(=O)(=O)c1ccc(C(C)=O)cc1
				20	6.31	COc1ccc(NS(=O)(=O)c2ccccc2)cc1C(=O)CCCCN1CCC2(CC1)NC(=O)NC2=O
				7.94	3.16	COc1ccc(Oc2ccccc2)cc1C(=O)CCCCN1CCC2(CC1)NC(=O)NC2=O
79.4		5.01	794			COc1cc(OC)c(C(=O)CCCCN2CCC3(CC2)NC(=O)NC3=O)cc1NS(=O)(=O)c1ccc(Cl)cc1
316		10	2510			COc1cc(OC)c(C(=O)CCCCN2CCC3(CC2)NC(=O)NC3=O)cc1NS(=O)(=O)c1ccc(C)cc1
398		7.94	794			COc1cc(OC)c(C(=O)CCCCN2CCC3(CC2)NC(=O)NC3=O)cc1NS(=O)(=O)c1ccc(C#N)cc1
3160		79.4	> 10000			COc1cc(OC)c(C(=O)CCCCN2CCC3(CC2)NC(=O)NC3=O)cc1NS(=O)(=O)c1ccc(S(N)(=O)=O)cc1
50.1	12.6	3.98				COc1ccc(Cl)cc1C(=O)CCCCN1CCC2(CC1)NC(=O)NC2=O
				126	39.8	COc1cc(OC)c(C(=O)CCCCN2CCC3(CC2)NC(=O)NC3=O)cc1N
1260		20	2000			COc1ccc(S(=O)(=O)Nc2cc(C(=O)CCCCN3CCC4(CC3)NC(=O)NC4=O)c(OC)cc2OC)cc1
200	126	6.31				COc1cc(Cl)ccc1C(=O)CCCCN1CCC2(CC1)NC(=O)NC2=O
398		1.58	1000			COc1cc(OC)c(C(=O)CCCCN2CCC3(CC2)NC(=O)NC3=O)cc1NS(=O)(=O)c1ccc(OC(F)(F)F)cc1
				5.01	0.631	COc1cc(OC)c(C(=O)CCCCN2CCC3(CC2)NC(=O)NC3=O)cc1Cl
6.31	6.31	0.251				COc1cc(Cl)c(Cl)cc1C(=O)CCCCN1CCC2(CC1)NC(=O)NC2=O
1260		1.58	1260			COc1cc(OC)c(C(=O)CCCCN2CCC3(CC2)NC(=O)NC3=O)cc1NS(=O)(=O)c1ccc(C(C)C)cc1
316		39.8	> 10000			COc1cc(OC)c(C(=O)CCCCN2CCC3(CC2)NC(=O)NC3=O)cc1NS(=O)(=O)c1ccc(NC(C)=O)cc1
10	1	0.2				COc1ccc(-c2ccccc2)cc1C(=O)CCCCN1CCC2(CC1)NC(=O)NC2=O

Structure (SMILES)	Ki [1] [nM]	Ki [2] [nM]	Ki [3] [nM]	Ki [4] [nM]	Ki [5] [nM]	Ki [6] [nM]
COc1ccccc1C(=O)CCCCN1CCC2(CC1)NC(=O)NC2=O	> 10000	> 10000	> 10000			
CN1C[C@@H](NS(=O)(=O)N(C)C)C[C@@H]2c3cccc4c3c(cn4C)C[C@H]21 [MESULERGINE]	2			20		
COc1cc(OC)c(C(=O)CCCCN2CCC3(CC2)NC(=O)NC3=O)cc1NS(=O)(=O)c1ccc(C(F)(F)F)cc1 [RS-102,221]	316		2	631		
O=C(CCCN1CCC2(CC1)C(=O)NCN2c1ccccc1)c1ccc(F)cc1 [SPIPERONE]	1260		631			
